Measured values taken from PubChem BioAssay AID652047 (Broad Institute, 2013).
Active and inactive are the calls of the source.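 The calls were made as follows: active = fitted curve reaches activity change of -35% signal drop at a concentration below twice the top valid tested dose; inactive = the rest, including activity in the opposite direction.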

Assays:
[1] = antimalarial activity against intraerythrocytic 3D7 parasites – 3D7 strain, red blood cells, SYBR Green, cherry-picked, dose response (AID 652047);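 as to activity change, negative = inhibition: 0% = untreated neutral control wells and -100% = mefloquine positive control wells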; conditions: P. falciparum 3D7 in RBCs, SYBR Green DNA fluorescence; at 50 µM (top of the series)
[2] = test system: P. falciparum 3D7 in RBCs, SYBR Green DNA fluorescence; assay: as above

Row | Compound | activity change, negative = inhibition [1] | AC35 [2] [µM]
1 | CCCOc1ccc2ccccc2c1/C=C1\SC(=O)NC1=O | -22.2% (inactive) | 
2 | CC1(C)CC(=O)C(N=Nc2ccc3ncsc3c2)=C(O)C1 | -15.1% (inactive) | 
3 | COc1ccccc1C1CCN(C(=O)c2ccc(Cl)cc2)CC1 | -15.2% (inactive) | 
4 | CCCSC(=S)c1c(C)[nH]n(-c2ccccc2)c1=O | -28.2% (inactive) | 
5 | Cc1cc(Nc2ccccc2)nn1C(=O)c1ccccc1 | -5.49% (inactive) | 
6 | O=C1N(c2ccc(Cl)cc2)C(c2cccnc2)N2CCCN12 (configuration not stated) | -3.96% (inactive) | 
7 | O=c1c(CO)cc(CO)cc(CO)c1O | -103% (inactive) | 
8 | Clc1ccc(-c2n[nH]c3c2CCC3)cc1Cl | 19.2% (inactive) | 
9 | CC12CCC(O)CC1=CCC1C2CCC2(C)C3=NN=CC3CC12 (configuration not stated) | -27.5% (inactive) | 
10 | c1ccc(-c2ccc(OCCCn3cncn3)cc2)cc1 | 6.71% (inactive) | 
11 | FC(F)(F)c1cccc(N2CCc3cn[nH]c32)c1 | -2.82% (inactive) | 
12 | c1ccc(Cn2cc(-c3cccnc3)cn2)cc1 | -24.2% (inactive) | 
13 | CC1=NN(C(N)=S)C(=O)C1N=Nc1cccc(Cl)c1C (configuration not stated) | -20.7% (inactive) | 
14 | Cc1cc(NS(=O)(=O)c2ccc(C3CCCCC3)cc2)no1 | 27.3% (inactive) | 
15 | CCCCc1ccc(-n2c(Cc3cccs3)n[nH]c2=S)cc1 | -28% (inactive) | 
16 | O/N=C/c1ccccc1OCc1ccc(Cl)cc1 | -27.3% (inactive) | 
17 | COc1ccc(-c2oc3ccccc3c2C#Cc2cncn2C)cc1 |  | 0.603
18 | CC(=O)C1=C(c2ccc(Br)cc2)C(=O)c2ccccc2C1=O |  | 0.82
19 | Cc1ccc(O)c(C2=NNC(c3ccc(Cl)cc3)C2)c1 (configuration not stated) |  | 4.31

Row | Compound | activity change, negative = inhibition [1] | AC35 [2] [µM]
20 | C=CCc1ccc(O)c(-c2ccc(O)c(CC=C)c2)c1 |  | 15.8
21 | O=C1c2cc(F)ccc2-n2c1nc1ccccc1c2=O |  | < 0.0235
22 | O=[N+]([O-])c1ccc2c(OCc3nnc(-c4ccccc4Br)o3)ncnc2c1 |  | 25.5
23 | CCOC(=O)c1cnc(-n2nc(C)cc2C)nc1NC1CCCC1 |  | 2.6
24 | O=c1cc(CSc2ccc(Cl)cc2)nc(-c2ccccn2)[nH]1 |  | 1.93
25 | CN(C)c1ccc(C=c2c3cc(O)ccc3n3c2cc(-c2ccccc2)[n+]3C)cc1 |  | 0.127
26 | CCN(CC)c1ccc(/C=N/NC(=O)c2c(Cl)cnn2C)c(O)c1 |  | 3.27
27 | Cc1ccc(-n2nnnc2SCC(=O)N2CCc3ccccc3C2)c(C)c1 |  | 30.7
28 | CN(C)c1nc(-c2ccccn2)nnc1-c1ccccc1 |  | 1.13
29 | C[C@@]12CCC3[C@@](CCC4[C@@]3(C)CCC[C@@]4(C)C(=O)NCc3ccccc3)(CC1=O)C2 (some centres not stated) |  | 30.2
30 | O=[N+]([O-])c1cccc(C=NNc2ccc3ccccc3n2)c1O |  | 4.23
31 | CC1CCN(c2nc(-c3ccncc3)nc3ccccc23)CC1 |  | 4.32
32 | COC(=O)c1cccc2c1-c1ccccc1/C2=N/O |  | 34.7
33 | CCc1ccc(CN(C)C(=O)c2cc(COc3cccc(C(F)(F)F)c3)on2)nc1 |  | 24.6
34 | CCC(C)c1ccc(NC(=S)NCCn2cc(Br)cn2)cc1 (configuration not stated) |  | 13.9
35 | O=C(NOC(=O)c1ccccc1)c1ccccc1 |  | 20.9
36 | CC(C)N1CCN(c2ccc(OCC3COC(Cn4cncn4)(c4ccc(Cl)cc4Cl)O3)cc2)CC1 (configuration not stated) |  | 3.77
37 | O=S(=O)(c1ccc(Cl)cc1)N1CCC2(CC1)OCCN2S(=O)(=O)c1cccs1 |  | 24.8
38 | Cc1ccc(Nc2cc(C)nn2-c2nc(C)cc(C)n2)cc1 |  | 2.38

Row | Compound | activity change, negative = inhibition [1] | AC35 [2] [µM]
39 | Fc1ccc(CCNC(=S)Nc2ccc(F)c(Cl)c2)cc1 |  | 15.9
40 | Oc1ccc(N=Nc2ccc3c(c2)OCCO3)c2cccnc12 |  | 0.706
41 | Cc1cc(C)c(C(=O)CC(=O)c2cccnc2)c(C)c1 |  | 6.77
42 | COc1ccc2[nH]c(=O)c(CN(Cc3cccnc3)C(=O)Nc3ccccc3)cc2c1 |  | 17.5
43 | O=c1c2ccccc2nc(-c2ccc(-c3ccccc3)cc2)n1-c1ccncc1 |  | 3.6
44 | Clc1ccccc1C(c1ccccc1)(c1ccccc1)n1ccnc1 |  | 0.448
45 | CCCCCCSc1ccc(-c2nc3ccccn3c2NCCCC)cc1 |  | 12.2
46 | CCC(=O)NC(c1ccco1)c1cc(Cl)c2cccnc2c1O (configuration not stated) |  | 0.484
47 | CN(Cc1ccc(Cl)s1)C(=O)CCl |  | 1.69
48 | CCOC(=O)c1cc2c(=Cc3ccc(N(C)C)cc3)c3ccccc3n2[n+]1C |  | 1.94
49 | O/N=C(\c1ccc(Cl)cc1Cl)c1ncc(C(F)(F)F)cc1Cl |  | 16.9
50 | Cc1nc2ccc(C(C(F)(F)F)(C(F)(F)F)C(F)(F)F)cc2[nH]1 |  | 17.8
51 | O=C(Nc1ccc(Br)c(C(F)(F)F)c1)c1ccccc1 |  | 20
52 | O=C(Nc1cc(Oc2ccc(Cl)cc2)cc([N+](=O)[O-])c1)c1ccco1 |  | 6.1
53 | Oc1cccc2ccc(Nc3ccccn3)nc12 |  | 0.182
54 | CC/C(=N/NC(=O)c1ccccc1O)c1c(C)[nH]n(-c2ccccc2)c1=O |  | 34.9
55 | O=C(COc1ccc([N+](=O)[O-])cc1)Nc1nc(-c2ccccn2)cs1 |  | 6.63
56 | S=C(Nc1ccc(Oc2ccccc2)cc1)NC1CCCCCC1 |  | 12.7
57 | O=C(Nc1ccc(Cl)cc1C(=O)Nc1ccc(Br)cn1)c1ccco1 |  | 15.1
